Read-outs that look alike come from different tables or passages of the source. Each block holds one molecule with its values, some of them ahead of it. Square brackets hold non-standard residues; d marks the D form. Peptide text beside a SMILES is read from it. hPhe = N[C@@H](CCc1ccccc1)C(=O)O; Nle = CCCC[C@H](N)C(=O)O
Experiments:
mMC1R [1] = target: T1, mMC1R (Mus musculus, UniProt Q01727); test: cell-based
mMC1R [2] = target: T1, mMC1R
mMC4R [3] = target: T2, mMC4R (Mus musculus, UniProt P56450); conditions: depending on the cAMP assay utilized; cited from earlier work
T2 sequence (P56450 whole entry): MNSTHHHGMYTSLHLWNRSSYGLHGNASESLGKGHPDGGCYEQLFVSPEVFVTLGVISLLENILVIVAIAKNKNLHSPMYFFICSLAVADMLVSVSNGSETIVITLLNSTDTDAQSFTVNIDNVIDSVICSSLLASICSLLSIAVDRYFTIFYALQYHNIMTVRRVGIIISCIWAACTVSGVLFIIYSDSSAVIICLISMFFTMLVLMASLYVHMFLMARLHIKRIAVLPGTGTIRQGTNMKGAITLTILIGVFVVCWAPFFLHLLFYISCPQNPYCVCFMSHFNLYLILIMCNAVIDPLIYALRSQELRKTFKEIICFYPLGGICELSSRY

mMC4R [4] = target: T2, mMC4R; conditions: for fold increase in potency at the mMC4R compared to 1: calculated using Ki values from Schild analysis
mMC3R [5] = target: T3, mMC3R (Mus musculus, UniProt P33033)
T3 sequence (P33033 whole entry): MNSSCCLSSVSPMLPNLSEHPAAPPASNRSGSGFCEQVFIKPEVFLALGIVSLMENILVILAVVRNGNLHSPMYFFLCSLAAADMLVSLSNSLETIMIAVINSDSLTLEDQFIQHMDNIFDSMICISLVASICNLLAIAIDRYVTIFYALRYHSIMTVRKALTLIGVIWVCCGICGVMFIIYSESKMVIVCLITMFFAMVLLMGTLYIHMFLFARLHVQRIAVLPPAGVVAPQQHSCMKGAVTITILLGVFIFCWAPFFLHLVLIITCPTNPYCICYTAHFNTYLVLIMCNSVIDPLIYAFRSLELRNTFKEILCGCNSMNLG

mMC5R = mMC5R (Mus musculus, UniProt P41149); test: AlphaScreen cAMP assay, agonist/inverse agonist activity at mMC5R; conditions: for mMC5R inverse agonist efficacy (−X%): relative to basal, apparent sigmoidal dose-response; for mMC5R activity in words: up to 100 μM
mMC5R, sequence (P41149 whole entry): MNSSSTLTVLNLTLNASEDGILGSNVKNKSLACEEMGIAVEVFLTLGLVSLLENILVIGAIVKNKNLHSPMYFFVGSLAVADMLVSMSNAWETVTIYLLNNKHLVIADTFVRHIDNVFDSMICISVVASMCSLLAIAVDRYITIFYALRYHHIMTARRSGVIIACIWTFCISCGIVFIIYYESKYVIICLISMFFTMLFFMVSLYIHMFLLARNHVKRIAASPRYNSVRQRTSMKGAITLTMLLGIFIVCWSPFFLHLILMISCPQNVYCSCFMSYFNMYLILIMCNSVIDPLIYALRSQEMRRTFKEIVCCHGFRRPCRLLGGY

mMC4R [6] = target: T2, mMC4R; conditions: cited from earlier work
mMC3R [7] = target: T3, mMC3R; remark: listed apart in the source
mMC3R [8] = target: T3, mMC3R; conditions: cited from earlier work
mMC4R [9] = target: T2, mMC4R
MC1R = conditions: read-out: MC1R agonist EC50; cited from earlier work
[10] = target: mouse melanocortin-1 receptor (mouse) (UniProt Q01727)
mouse melanocortin-1 receptor (mouse), sequence (Q01727 whole entry): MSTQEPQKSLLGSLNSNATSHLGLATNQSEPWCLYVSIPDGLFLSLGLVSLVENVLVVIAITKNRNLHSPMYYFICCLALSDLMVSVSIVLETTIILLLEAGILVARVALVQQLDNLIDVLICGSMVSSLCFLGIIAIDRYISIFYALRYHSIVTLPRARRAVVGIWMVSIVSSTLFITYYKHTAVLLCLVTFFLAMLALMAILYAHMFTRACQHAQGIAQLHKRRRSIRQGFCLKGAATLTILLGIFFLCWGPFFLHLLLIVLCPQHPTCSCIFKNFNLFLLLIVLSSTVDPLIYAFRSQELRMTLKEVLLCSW

[11] = maximal stimulation relative to NDP-MSH, sigmoidal dose-response
[12] = calculated using Ki values from Schild analysis
[13] = calculated using antagonist Ki values
[14] = β-galactosidase reporter gene assay

T1 sequence (Q01727 whole entry): as above

Molecule: C[C@@H]1NC(=O)[C@H](CC(N)=O)NC(=O)[C@H](Cc2ccccc2)NC(=O)[C@H](Cc2ccccc2)NC(=O)[C@H](CCCNC(=N)N)NC(=O)[C@@H]2CCCN2C(=O)[C@H]2CCCN2C(=O)[C@H](Cc2ccccc2)NC1=O [Compound 1, c[Pro-Arg-Phe-Phe-Asn-Ala-Phe-DPro]]
EC50 (mMC1R [1]): 2800 ± 600 nM
mMC1R partial agonist activity (X%), receptor stimulated to given percent (mMC1R [2]; [11]): 80%
mMC4R pA2 (mMC4R [3]): 7.7–8.1

Molecule: CCCC[C@@H]1NC(=O)[C@H](C)NC(=O)[C@H](CC(N)=O)NC(=O)[C@H](Cc2ccccc2)NC(=O)[C@H](Cc2ccccc2)NC(=O)[C@H](CCCNC(=N)N)NC(=O)[C@@H]2CCCN2C(=O)[C@H]2CCCN2C1=O [Compound 2, c[Pro-Arg-Phe-Phe-Asn-Ala-Nle-DPro]]
EC50 (mMC1R [1]): 1700 ± 300 nM
Kb (mMC4R [4]): 1.26 nM
fold increase in potency at the mMC4R compared to 1 (mMC4R [4]): ≤ 10 fold
Kb (mMC3R [5]): 251 nM
mMC1R partial agonist activity (X%), receptor stimulated to given percent (mMC1R [2]; [11]): 50%
EC50 (mMC5R): 10 ± 6 nM
mMC5R inverse agonist efficacy (−X%) (mMC5R): −20%
mMC5R activity in words (mMC5R): inverse agonist activity was observed

Molecule: N=C(N)NCCC[C@@H]1NC(=O)[C@@H]2CCCN2C(=O)[C@H]2CCCN2C(=O)[C@H](Cc2ccccc2)NC(=O)[C@H](CO)NC(=O)[C@H](CC(N)=O)NC(=O)[C@H](Cc2ccccc2)NC(=O)[C@H](Cc2ccccc2)NC1=O [Compound 3, c[Pro-Arg-Phe-Phe-Asn-Ser-Phe-DPro]] (cyclo(RFFNSF[dP]P))
EC50 (mMC1R [1]): 1200 ± 300 nM
Kb (mMC4R [4]): 7.94 nM
fold increase in potency at the mMC4R compared to 1 (mMC4R [4]): ≤ 10 fold
Kb (mMC3R [5]): 794 nM
EC50 (mMC5R): 6 ± 3 nM
mMC5R inverse agonist efficacy (−X%) (mMC5R): −14%
mMC5R activity in words (mMC5R): inverse agonist activity was observed

Molecule: C[C@@H]1NC(=O)[C@H](CN)NC(=O)[C@H](Cc2ccccc2)NC(=O)[C@H](Cc2ccccc2)NC(=O)[C@H](CCCNC(=N)N)NC(=O)[C@@H]2CCCN2C(=O)[C@H]2CCCN2C(=O)[C@H](Cc2ccccc2)NC1=O [Compound 5, c[Pro-Arg-Phe-Phe-Dap-Ala-Phe-DPro]]
EC50 (mMC1R [1]): 1600 ± 400 nM
Kb (mMC3R [5]): 63.1 nM
mMC1R partial agonist activity (X%), receptor stimulated to given percent (mMC1R [2]; [11]): 80%
EC50 (mMC5R): > 100000 nM

EC50 (mMC1R [1]): 600 ± 200 nM
Kb (mMC4R [4]): 2 nM
Kb (mMC3R [5]): 39.8 nM
fold increase in potency at the mMC3R compared to 1 (mMC3R [5]; [12]): greater than 10 fold
mMC1R partial agonist activity (X%), receptor stimulated to given percent (mMC1R [2]): 25%
EC50 (mMC5R): > 100000 nM
Molecule: C[C@@H]1NC(=O)[C@H](CCCNC(=N)N)NC(=O)[C@H](Cc2ccccc2)NC(=O)[C@H](Cc2ccccc2)NC(=O)[C@H](CCCNC(=N)N)NC(=O)[C@@H]2CCCN2C(=O)[C@H]2CCCN2C(=O)[C@H](Cc2ccccc2)NC1=O [Compound 9, c[Pro-Arg-Phe-Phe-Arg-Ala-Phe-DPro]] (cyclo(RFFRAF[dP]P))

Molecule: C[C@@H]1NC(=O)[C@H](CC(N)=O)NC(=O)[C@H](CCc2ccccc2)NC(=O)[C@H](Cc2ccccc2)NC(=O)[C@H](CCCNC(=N)N)NC(=O)[C@@H]2CCCN2C(=O)[C@H]2CCCN2C(=O)[C@H](Cc2ccccc2)NC1=O [Compound 13, c[Pro-Arg-Phe-hPhe-Asn-Ala-Phe-DPro]]
Kb (mMC4R [4]): 5.01 nM
mMC4R potency compared to lead peptide 1 in words (mMC4R [4]): equipotent to the lead peptide
selectivity for the mMC4R over the mMC3R (mMC4R [4]; [13]): approximately 500 fold
fold less potent than 1 at the mMC4R (mMC4R [6]; [14]): 5 fold
Antagonist mMC3R pA2 (mMC3R [7]): 5.6±0.2
Kb (mMC3R [5]): 2510 nM
Antagonist mMC3R pA2 (mMC3R [5]; Schild analysis with agonist NDP-MSH, pA2 = −log[Ki]): 5.6
fold reduced potency at the mMC3R compared to 1 (mMC3R [5]; [12]): 5 fold
EC50 (mMC5R): > 100000 nM
mMC3R antagonist activity in words (mMC3R [8]; [14]): did not possess antagonist activity

Molecule: C[C@@H]1NC(=O)[C@H](CCCNC(=N)N)NC(=O)[C@H](CCc2ccccc2)NC(=O)[C@H](Cc2ccccc2)NC(=O)[C@H](CCCNC(=N)N)NC(=O)[C@@H]2CCCN2C(=O)[C@H]2CCCN2C(=O)[C@H](Cc2ccccc2)NC1=O [Compound 21, c[Pro-Arg-Phe-hPhe-Arg-Ala-Phe-DPro]] (cyclo(RF[hPhe]RAF[dP]P))
mMC4R potency compared to AGRP in words (mMC4R [4]): equipotent to AGRP
fold increase in potency at the mMC4R compared to 1 (mMC4R [4]): 6 fold
fold decrease in mMC4R selectivity compared to 1 (mMC4R [4]; [13]): 7 fold
fold less potent than AGRP at the mMC3R (mMC3R [5]): 5 fold
mMC5R activity in words (mMC5R): did not result in mMC5R stimulation
Antagonist mMC4R pA2 (mMC4R [9]): 8.9

fold increase in potency at the mMC3R compared to 1 (mMC3R [5]; [12]): greater than 10 fold
mMC1R agonist activity in words (mMC1R [2]; up to 100 μM): did not possess agonist activity
Molecule: CCCC[C@@H]1NC(=O)[C@H](C)NC(=O)[C@H](CCCNC(=N)N)NC(=O)[C@H](CCc2ccccc2)NC(=O)[C@H](Cc2ccccc2)NC(=O)[C@H](CCCNC(=N)N)NC(=O)[C@@H]2CCCN2C(=O)[C@H]2CCCN2C1=O [Compound 22, c[Pro-Arg-Phe-hPhe-Arg-Ala-Nle-DPro]] (cyclo(RF[hPhe]RA[Nle][dP]P))

fold increase in potency at the mMC3R compared to 1 (mMC3R [5]; [12]): greater than 10 fold
mMC1R partial agonist activity (X%), receptor stimulated to given percent (mMC1R [2]): 25%
Molecule: CCCC[C@@H]1NC(=O)[C@H](CO)NC(=O)[C@H](CCCNC(=N)N)NC(=O)[C@H](CCc2ccccc2)NC(=O)[C@H](Cc2ccccc2)NC(=O)[C@H](CCCNC(=N)N)NC(=O)[C@@H]2CCCN2C(=O)[C@H]2CCCN2C1=O [Compound 24, c[Pro-Arg-Phe-hPhe-Arg-Ser-Nle-DPro]] (cyclo(RF[hPhe]RS[Nle][dP]P))

Molecule: Tyr-c[Cys-Arg-Phe-Phe-Asn-Ala-Phe-Cys]-Tyr [hAGRP(109–118), reference compound]
Antagonist mMC4R pA2 (mMC4R [6]; β-galactosidase reporter gene bioassay): 6.8±0.4
mMC3R activity in words (mMC3R [8]; β-galactosidase reporter gene bioassay, up to 10 μM): No activity (Agonist or Antagonist)
EC50 (MC1R): 3000 nM

agonist EC50, cAMP (AlphaScreen), HEK293 cells stably expressing mMC1R [10]: 400 nM
Molecule: cyclo(PRF[hPhe]RS[Nle][dP])

Reference: publication PMC6174881 (Journal of medicinal chemistry, 2018)
